Values quoted from earlier work as cited in patent US11234954B2, “Low-dose doxepin for treatment of sleep disorders in elderly patients” (Pernix Sleep, Inc., priority 2006, dated 2022).

Conditions: major active metabolite of doxepin; cited from earlier work

In the case of `CNCC/C=C1\c2ccccc2COc2ccccc21` [desmethyldoxepin, Desmethyldoxepin], the half-life is listed as 51 h.
